Laboratory results taken from patent US5235843A, “Method and apparatus for analyzing volatile chemical components in a liquid” (The Dow Chemical Company, priority 1991, dated 1993).

Test: Enrichment (partitioning from water to air in segmented flow), enrichment factor
Type: physicochemical
Details: calculated enrichment factor
Description: That is, each enrichment factor is a direct measure of the detection capabilities of the method and apparatus with respect to a specific volatile compound compound.
Both the detection limit in air and quantitation limit in water will vary depending on the sensitivity of the analytical equipment used. Thus, at any given testing site the sensitivity of the particular gas chromatograph used will determine detection and quantitation limits.
Without benefit of known enrichment factor for each compound compound present, extrapolation of the quantitation limit (LOQ) for each compound was accomplished by multiplying the signal-to-noise ratio of the test instrument by ten. These quantitation limits are a reflection of both the detector sensitivity (LOD) and what can be referred to as the enrichment factor or magnification of the concentration into the air phase. Thus, an enrichment factor was calculated for each compound as follows: [formula]
The enrichment factor depends on the volatility, water solubility, and diffusion coefficient of the particular compound.

Structure (SMILES) | EF (air/water)
ClC(Cl)C(Cl)Cl [1,1,2,2-TETRACHLOROETHANE] | 2.0
ClCC(Cl)Cl [1,1,2-TRICHLOROETHANE] | 3.9
CC(Cl)(Cl)Cl [1,1,-TRICHLOROETHANE] | 6.8
CC(Cl)Cl [1,1-DICHLOROETHANE] | 6.7
Clc1ccccc1Cl [1,2-DICHLOROBENZENE] | 1.7
ClCCCl [1,2-DICHLOROETHANE] | 6.8
CC(Cl)CCl (stereo not drawn) [1,2-DICHLOROPROPANE] | 7.7
ClC(Cl)Br [BROMODICHLOROMETHANE] | 7.7
BrC(Br)Br [BROMOFORM] | 2.0
ClC(Cl)(Cl)Cl [CARBON TETRACHLORIDE] | 7.7
Clc1ccccc1 [CHLOROBENZENE] | 4.0
ClC(Br)Br [CHLORODIBROMOMETHANE] | 3.7
ClC(Cl)Cl [CHLOROFORM] | 6.6
CBr [METHYL BROMIDE] | 76
ClCCl [METHYLENE CHLORIDE] | 8.2
ClC(Cl)=C(Cl)Cl [PERCHLOROETHYLENE] | 4.8
ClC=C(Cl)Cl [TRICHLOROETHYLENE] | 9.9
C=C(Cl)Cl [[…]] | 12
Cl/C=C\CCl [c-1,3 DICHLOROPROPENE] | 3.6
Cl/C=C/Cl [t-1,2-DICHLOROETHYLENE] | 16
Cl/C=C/CCl [t-1,3-DICHLOROPROPENE] | 7.2
